From patent publication US20250268902A1, “THERAPEUTIC METHODS” (CeleCor Therapeutics, Inc., priority 2021, published 2025)
Where two headings read alike, the source gives them in different places.

Experiments:
[1] = system: platelet aggregation to adenosine diphosphate (ADP; 20 μM); assay: Inhibition of platelet aggregation (IPA) to ADP (20 μM) after SC injection in healthy volunteers and stable CAD patients on aspirin; assay type: in vivo, human; settings: for mean±SD IPA / IPA: 15 minutes after injection; for IPA: stable CAD patients on aspirin
Method: Sequentially, healthy volunteers (HV) and then patients with stable coronary disease (CAD) receiving aspirin received escalating doses of RUC-4 or placebo in a sentinel dose, randomized, blinded fashion. Inhibition of platelet aggregation (IPA) to adenosine diphosphate (ADP; 20 μM), RUC-4 blood levels, laboratory evaluations, and clinical assessments were made through 24 hours and at 7 days. Doses were increased until a dose that produced ≥80% IPA within 15 minutes, with return toward baseline within 4 hours was achieved. VerifyNow (VN) was also measured in a subset of patients with stable CAD.

[2] = system: agglutination of fibrinogen-coated beads by activated platelets; assay: VerifyNow ADP+PGE1, iso-TRAP and base channel assays; assay type: cell-based
Method: VerifyNow (VN) assays (Instrumentation Laboratories, Bedford, MA) are whole-blood, cartridge-based, and automated, and produce results within 15 minutes of blood draw. They are based on the agglutination of fibrinogen-coated beads by platelets activated by different agonists. Commercially available VN assays are designed to study the antiplatelet effects of aspirin (VN Aspirin cartridge; arachidonic acid activator) or P2Y12 antagonists (VN PRUTest cartridge and VN P2Y12 cartridge; ADP+PGE1 activator/inhibitor combination). The modified thrombin receptor activating peptide (iso-TRAP) is included in a separate reaction chamber (in addition to the ADP+PGE1 reaction chamber) in both the PRUTest and P2Y12 cartridges, and the P2Y12 cartridges further include a ‘BASE channel’ reaction chamber in which a PAR-1 activating peptide (iso-TRAP) at higher concentrations is combined with a PAR-4 activating peptide (PAR-4 AP) to achieve potent activation that can overcome the effects of P2Y12 antagonists.
VerifyNow ADP+PGE1, iso-TRAP, and base channel assays may be used to report Compound (1)-mediated inhibition in near real-time. VN assays can be used to help deconvolute antiplatelet effects of αIIbβ3 antagonists versus P2Y12 antagonists. […] The BASE channel assay was used to monitor the pharmacodynamic effects of Compound (1) independent of any P2Y12 inhibitors.

platelet aggregation = assay: Light transmission aggregometry (LTA) with activators ADP, iso-TRAP, arachidonic acid; assay type: cell-based
Source text: Light transmission aggregometry (LTA) is considered the gold standard assay to assess the potency of antiplatelet agents, such as Compound (I), because of its association with clinical outcomes.

[3] = system: PAR1/PAR4-induced platelet aggregation (BASE Channel); assay: VerifyNow P2Y12 assay BASE channel platelet inhibition in STEMI patients (CEL-02 trial); assay type: in vivo, human; settings: for inhibition at 0.075 mg/kg / inhibition at 0.09 mg/kg / inhibition at 0.11 mg/kg: Homo sapiens, Platelet; for inhibition at 0.075 mg/kg: 0.075 mg/kg SC; for inhibition at 0.09 mg/kg: 0.090 mg/kg SC; for inhibition at 0.11 mg/kg: 0.11 mg/kg SC
Source text: The open-label, dose escalating, phase 2, CEL-02 trial set out to assess the pharmacodynamics (PD), pharmacokinetics (PK), safety and tolerability of RUC-4 in STEMI patients treated with aspirin and ticagrelor in the ambulance undergoing primary percutaneous coronary intervention (pPCI). STEMI patients presenting for pPCI at the St. Antonius Hospital Nieuwegein, the Netherlands, received a single, weight-adjusted, subcutaneous injection of RUC-4 before coronary angiography. After assessment of every 8 evaluable patients, the dose was escalated to reach an optimal dose for platelet inhibition. All patients were concomitantly treated with aspirin, ticagrelor and unfractionated heparin (UFH)(5000 IU) in the ambulance. Additional UFH during PCI was only administered when ACT was <200 seconds (2500-5000 IU). Blood samples for (PD) and (PK) were taken before RUC-4 administration, and 15, 45, 60, 90, 120, 180, and 240 minutes thereafter. Platelet inhibition was measured by the VerifyNow P2Y12 assay BASE channel which uses a protease activated receptor-1 (PAR-1) peptide (iso-TRAP) and a PAR-4 activating peptide as agonists, overriding platelet inhibition by oral P2Y12 inhibitors.

[4] = system: platelets in whole blood (VN isoTRAP and ADP+PGE1 channels); assay: In vitro VerifyNow IIb/IIIa and PRU cartridges in whole blood from healthy volunteers; assay type: cell-based, human; settings: 30-900 nM, 10 minutes at room temperature
Method: Whole blood anticoagulated with either sodium citrate (0.32%) or PPACK ([…]) from healthy volunteers who were either taking or not taking daily aspirin was treated in vitro with Compound (I) (RUC-4) to achieve final whole blood concentrations between 30 and 900 nM. Blood was incubated for 10 minutes at room temperature and then tested with either the IIb/IIIa or PRU cartridge.

## CC(=O)Oc1ccccc1C(=O)O [aspirin]
[1]; subjects given RUC-4 SC
  effect of aspirin on IPA: did not affect
  effect of aspirin on RUC-4 blood levels: did not affect
[2]
  inhibition of VN ADP+PGE1 assay: does not inhibit
  inhibition of VN base channel assay: does not inhibit
  inhibition of VN iso-TRAP assay: does not inhibit
Platelet aggregation
  inhibition of ADP induced LTA: does not significantly inhibit
  inhibition of iso-TRAP induced LTA: does not significantly inhibit

## CCCSc1nc(N[C@@H]2C[C@H]2c2ccc(F)c(F)c2)c2nnn([C@@H]3C[C@H](OCCO)[C@@H](O)[C@H]3O)c2n1 [ticagrelor]
[2]
  inhibition of VN ADP+PGE1 assay: dramatically inhibits
  inhibition of VN base channel assay: does not inhibit
  inhibition of VN iso-TRAP assay: slightly inhibits
Platelet aggregation
  inhibition of iso-TRAP induced LTA: slightly inhibits

## NCC(=O)Nc1cncc(-c2nn3c(=O)cc(N4CCNCC4)nc3s2)c1 [RUC-4]
[1]; healthy volunteers, 0.05 mg/kg SC, n=6
  mean±SD IPA: 71.8±15.0%
[1]; healthy volunteers, 0.075 mg/kg SC, n=6
  mean±SD IPA: 84.7±16.7%
[1]; healthy volunteers, in all cases, after SC injection
  time over which IPA diminished: 90 to 120 min
[1]; 0.04 mg/kg SC, n=2
  IPA: 53.6±17.0%
[1]; 0.05 mg/kg SC, n=6
  IPA: 76.9±10.6%
[1]; 0.075 mg/kg SC, n=18
  IPA: 88.9±12.7%
[3]; 0.25 h, 15 minutes post-dose, n=8, with aspirin, ticagrelor, UFH, read-out: maximal platelet inhibition, mean [SD]
  inhibition at 0.075 mg/kg: 83.7%
[3]; 0.25 h, 15 minutes post-dose, n=9, with aspirin, ticagrelor, UFH, read-out: maximal platelet inhibition, mean [SD]
  inhibition at 0.09 mg/kg: 89.6%
[3]; 0.25 h, 15 minutes post-dose, n=10, with aspirin, ticagrelor, UFH, read-out: maximal platelet inhibition, mean [SD]
  inhibition at 0.11 mg/kg: 92.5%
[3]; 2 h, 120 minutes post-dose, n=8, read-out: platelet inhibition, mean (SD)
  inhibition at 0.075 mg/kg: 17.9%
[3]; 2 h, 120 minutes post-dose, n=9, read-out: platelet inhibition, mean (SD)
  inhibition at 0.09 mg/kg: 22.6%
[3]; 2 h, 120 minutes post-dose, n=10, read-out: platelet inhibition, mean (SD)
  inhibition at 0.11 mg/kg: 31.6%
[3]; single-dose subcutaneous
  time to maximal platelet function inhibition: ≤ 15 min
  time to return of platelet function: ≤ 120 min
[4]; IIb/IIIa and PRU cartridges
  inhibition of the VN isoTRAP channels: dose-dependent inhibition
[4]; PRU cartridge
  inhibition of the VN ADP+PGE1 channel: dose-dependent inhibition
[2]
  inhibition of VN ADP+PGE1 assay: dramatically inhibits
  inhibition of VN base channel assay: dramatically inhibits
  inhibition of VN iso-TRAP assay: dramatically inhibits
Platelet aggregation
  inhibition of AA (arachidonic acid) induced LTA: dramatically inhibits
  inhibition of ADP induced LTA: dramatically inhibits
